{
  "source": "patent US20150051212A1",
  "about": "“Compositions And Methods For Inhibiting Drusen” (Regenerative Research Foundation, priority 2012, published 2015)",
  "key": {"[1]": {"test_system": "drusen-associated protein transcripts", "experiment": "Reduced drusen expression: qPCR of drusen-associated protein transcripts in stressed RPE", "assay_type": "cell-based, human", "settings": "FIG. 4", "experimental": "RNA is isolated from the RPE cells at the end of the 24 hour rest period, according to the protocol in the Qiagen RNeasy Micro/Mini Kits. Once isolated, the RNA is converted into cDNA using a high-capacity RNA to cDNA conversion kit (Applied Biosystems). The resulting cDNA is then used in a qPCR assay, to quantitate expression of various drusen-associated genes, including genes encoding: αA-crystallin, αB-crystallin, βB1-crystallin, βB2-crystallin, βs-crystallin, αA4-crystallin, APP, APOE, APOJ, BACE-1, PS1, VEGF, VEGF R1, VEGF R2, PEDF, CC9, serum amyloid P, TIMP3, vitronectin, and H2AE. The expression level of one or more housekeeping genes, such as ribosomal S18 and GAPDH, is also quantitated. Forward and reverse PCR primers having the nucleotide sequences shown in Table 2, below, may be used with a SYBR green reporter from Applied Biosystems."}, "RPESC-derived RPE cells [2]": {"test_system": "RPESC-derived RPE cells", "experiment": "Restored viability: LDH cytotoxicity assay in stressed RPESC-derived RPE"}, "RPESC-derived RPE cells [3]": {"test_system": "RPESC-derived RPE cells", "experiment": "Restored resistance: transepithelial resistance of RPESC-derived RPE after oxidative stress", "assay_type": "cell-based, human", "settings": "oxidative stress by TBHP; FIG. 3", "from_the_text": "The ability of a test substance to restore transepithelial resistance may also be determined in the RPE cell-based assay. RPE cells are a tight junctioned epithelia and compromised epithelial integrity is a hallmark of RPE-associated diseases, such as, e.g., dry AMD.\nRestored resistance. Healthy RPE form tight functioned epithelia layers with high electrical resistance. Compromising the integrity of these layers decreases the resistance and is indicative of a diseased state, such as dry or other forms of AMD.\nPreferably, each well of primary human RPE cells has a resistance greater than 200 Ω·cm^2 before beginning the experiment. Resistance of RPE treated with a test compound is measured again, after oxidative stress, and compared to the resistance in untreated RPE subjected to the same oxidative stress procedure."}, "[4]": {"settings": "O'Hare et al. 2005 Cancer Cell; cited from earlier work"}},
  "data": [
    {"compound": "Cc1ccc(NC(=O)c2ccc(CN3CCN(C)CC3)cc2)cc1Nc1nccc(-c2cccnc2)n1", "note": "[Gleevec, 4-[(4-methylpiperazin-1-yl)methyl]-N-(4-methyl-3-{[4-(pyridin-3-yl)pyrimidin-2-yl]amino}phenyl)benzamide]", "values": [
      {"measurement": "effect on TBHP-induced up-regulation of drusen-associated protein transcripts", "setting": "[1]", "value": "attenuates TBHP-induced up-regulation of drusen-associated protein transcripts"},
      {"measurement": "cells viability restored compared to untreated controls", "setting": "RPESC-derived RPE cells [2]; 1 µM", "value": 100, "unit": "%"},
      {"measurement": "cell death in treated cells", "setting": "RPESC-derived RPE cells [2]; 1 μM, 100% cell death in untreated controls", "value": 0, "unit": "%"},
      {"measurement": "effect on decrease in transepithelial resistance after oxidative stress", "setting": "RPESC-derived RPE cells [3]", "value": "attenuate the decrease in transepithelial resistance"}
    ]},
    {"compound": "Cc1cn(-c2cc(NC(=O)c3ccc(C)c(Nc4nccc(-c5cccnc5)n4)c3)cc(C(F)(F)F)c2)cn1", "note": "[AMN107]", "values": [
      {"measurement": "potency relative to imatinib mesylate", "setting": "[4]", "value": 20, "unit": "fold"}
    ]},
    {"compound": "Ponatinib", "values": [
      {"measurement": "reduction in cell death compared to the cell lysis control", "setting": "RPESC-derived RPE cells [2]; 500 nM", "value": "about 80%"},
      {"measurement": "effect on cytotoxicity", "setting": "RPESC-derived RPE cells [2]; 1 μM, FIG. 2", "value": "no effect on cytotoxicity"}
    ]},
    {"compound": "COc1cc(Nc2c(C#N)cnc3cc(OCCCN4CCN(C)CC4)c(OC)cc23)c(Cl)cc1Cl", "note": "[Bosutinib]", "values": [
      {"measurement": "effect on TBHP-induced up-regulation of drusen-associated protein transcripts", "setting": "[1]", "value": "attenuates TBHP-induced up-regulation of drusen-associated protein transcripts"}
    ]}
  ]
}
